Like-named read-outs stand apart in the source and are kept apart here.

For data set [1] the following is noted: rat, in vivo.
Another data set deals with tumor blood flow. The note with it: cited from earlier work.
The subject of a further data set is heart tissue. Put plainly: Histopathology of heart tissue after single dose VTA, and protective effect of propranolol. Particulars: for Heart histopathology with propranolol pretreatment: 2 mg/kg Propranolol Hydrochloride 1 hour prior to CA-4DP 100 mg/kg.

In data set [1], “Combretastatin A-4 Disodium Phosphate Prodrug [CA-4DP]” had an MABP stabilized level of 110 mmHg. For the same compound, the “Heart Rate” value (rat, in vivo) came out at 265.6 bpm. In addition, the “Increase of MABP versus control animals” value (rat, in vivo, ip, 30 mg/kg) came out at 72%. Where the note is “rat, in vivo, ip, 30 mg/kg”, this compound displayed an MABP of 107.9 mmHg. Also, the “Blood flow in vital tissues (heart, kidney, small intestine)” value in the data set on tumor blood flow (100 mg/kg, rat) is reported as “maintained at normal levels”. In the data set on tumor blood flow (100 mg/kg, rat), the “Reduction in tumor blood flow” value was 100 fold. Besides, the “Mean Arterial Blood Pressure change” value in the data set with tumor blood flow (almost immediately following administration) is given as “substantial but transient increase”. The “Histopathological changes in the heart” value with heart tissue (CA-4DP 100 mg/kg i.v. single dose, overall) was “necrosis and degeneration of cardiac cells in some localized areas”; with heart tissue (CA-4DP 100 mg/kg i.v., at 6 hours), “some blood vessels in the heart tissue were observed dilated”; in the data set on heart tissue (CA-4DP 100 mg/kg i.v., at 24 hours) it was “Inflammation cells infiltrated the heart tissue”; with heart tissue (CA-4DP 100 mg/kg i.v., at 4 days) it was “loss of striation, fragmentation, a manifestation of necrosis and degeneration”.
Regarding `CC(C)NCC(O)COc1cccc2ccccc12` (racemic) [propranolol, 1-[ispropylamino]3-[1-napthyloxy]-2-propanol hydrocholoride], the MABP (antihypertensive co-administered with CA-4DP 30 mg/kg i.p., 1 hour after CA-4DP dosing) was determined as 80.2 mmHg. Moreover, the “Heart Rate” value (antihypertensive co-administered with CA-4DP 30 mg/kg i.p., 1 hour post CA-4DP dosing) is listed as 248.5 bpm. Moreover, the “Heart histopathology with propranolol pretreatment” value with heart tissue (6 or 24 hours post-treatment) was “no abnormal CA-4DP-related histopathology”; with heart tissue (4 days) it was “cardiac tissue remained healthy”.

Source of the values: patent publication US7358236B1 (priority 2002, dated 2008).
